In article PMC9227305, “Photoinduced Synthesis of Methylated Marine Cyclopeptide Galaxamide Analogs with Isoindolinone as Anticancer Agents” (Marine Drugs, 2022):
Values joined by “and” are separate entries in the source; they are usually repeats but may differ in a detail not shown here. Equal entries are not always repeated. Where two headings read alike, the source gives them in different places. *1 amine or outer side, *2 acyl side, *3 side chain or, on linkers, in order; H or OH if unused. Where a SMILES comes first, the peptide text is derived from it. [ ]: non-standard residue; d: D form. X1 = O=C1c2ccccc2[C@@](O)(CN(Cc2ccccc2)[*:1])N1CC(=O)[*:2]; X2 = O=C1c2ccccc2[C@](O)(CN(Cc2ccccc2)[*:1])N1CC(=O)[*:2]; NMeL = CN[C@@H](CC(C)C)C(=O)O; dNMeL = CN[C@H](CC(C)C)C(=O)O

Assays:
[1] = other bond; 21-membered ring; hv (450 W Hg lamp, Pyrex), SET photocyclization
HepG-2 cells = assay: cells
From the text: (§1) The antitumor activity of the prepared cyclic peptides against human hepatocellular carcinoma cells (HepG-2), human cervical cancer cell lines (HeLa) and human breast cancer cells (MDA-MB-231) was examined by MMT assay, and the mouse fibroblast L929 cells were used as the model cells to evaluate the toxicity of cyclopeptides to normal cell lines. Due to the absence of an authentic standard, taxol was chosen as a control because it is a widely used chemotherapeutic drug for the treatment of various cancers, including liver cancer.
(§2) Samples were dissolved in DMSO and diluted into different concentrations ([…], 18.75, 25, 37.5, 50, 75, 100 and 250 μM) and stored at 4 °C. Cells in the logarithmic growth phase were digested with trypsin and then seeded in 96-well plates at a density of 2 × 10^4 cells/well in 100 μL of culture medium. The cells were treated with different concentrations of the tested compound, and a blank control group without the drug was also set up. Six wells were repeated for each dose. After 48 h of co-incubation, MTT solution (100 μL, 0.5 mg/mL) was added, followed by incubation for another 4 h. After discarding the supernatant, 100 μL of DMSO was added per well, and the absorbance (OD) values were measured at 490 nm using an enzyme marker. Cell viability was calculated by the formula: Cell viability (%) = As/Ab × 100% (where As is the absorbance value of the experimental group and Ab is the absorbance value of the blank group). The obtained data were processed using SPSS19 software to obtain IC50 values.

L929 cells = assay: cells
From the text: as §1, §2

MDA-MB-231 cells = type: cell-based, human; conditions: 48 h
From the text: as §1, §2

[2] = tested on: renal carcinoma GRC-1 cell lines; design: method as in PMID 18816120; conditions: cited from earlier work
[3] = tested on: human hepatocellular carcinoma HepG-2 cell lines; design: method as in PMID 18816120; conditions: cited from earlier work

Compound | ring closure, isolated yield [1] | IC50 (HepG-2 cells; 48 h) | IC50 (L929 cells; 48 h) | IC50 (MDA-MB-231 cells) | other results
3-Hydroxy-isoindolinone-cyclo-(Gly-Leu-N-Me-Leu-Leu-N-Me-Leu-Leu) | 51% | – | – | – | –
3-Hydroxy-isoindolinone-cyclo-Gly-Leu-Leu-Leu-N-Me-Leu-Leu | 24% and 28% | – | – | – | –
3-Hydroxy-isoindolinone-cyclo-Gly-Leu-N-Me-Leu-Leu-Leu-Leu | 25% and 23% | – | – | – | –
3-Hydroxy-isoindolinone-cyclo-Gly-Leu-N-Me-Leu-Leu-N-Me-Leu-Leu | 48% and 43% and 45% | – | – | – | –
CC(C)C[C@@H]1C(=O)N[C@H](CC(C)C)C(=O)N(C)[C@H](CC(C)C)C(=O)N[C@H](CC(C)C)C(=O)N(Cc2ccccc2)C[C@@]2(O)c3ccccc3C(=O)N2CC(=O)N[C@H](CC(C)C)C(=O)N1C [Compound 1, 3-Hydroxy-isoindolinone-cyclo-(Gly-Leu-N-Me-Leu-Leu-N-Me-Leu-Leu)] (cyclo([dNMeL][dL][dNMeL][dL][X2][dL])) | – | 38.4 ± 2.2 µM | > 400 µM | 59.3 ± 2.3 µM | –
CC(C)C[C@H]1NC(=O)[C@H](CC(C)C)N(C)C(=O)[C@@H](CC(C)C)NC(=O)[C@H](CC(C)C)N(C)C(=O)[C@@H](CC(C)C)NC(=O)CN2C(=O)c3ccccc3[C@]2(O)CN(Cc2ccccc2)C1=O [Compound 2, 3-Hydroxy-isoindolinone-cyclo-Gly-Leu-N-Me-Leu-Leu-N-Me-Leu-Leu] (cyclo([NMeL][dL][NMeL][dL][X2][dL])) | – | 72.1 ± 5.8 µM | 364 ± 15.6 µM | 67.6 ± 3.3 µM | –
CC(C)C[C@@H]1NC(=O)[C@@H](CC(C)C)N(C)C(=O)[C@H](CC(C)C)NC(=O)[C@@H](CC(C)C)N(C)C(=O)[C@H](CC(C)C)NC(=O)CN2C(=O)c3ccccc3[C@]2(O)CN(Cc2ccccc2)C1=O [Compound 3, 3-Hydroxy-isoindolinone-cyclo-Gly-Leu-N-Me-Leu-Leu-N-Me-Leu-Leu] (cyclo([dNMeL]L[dNMeL]L[X2]L)) | – | 90.9 ± 7.69 µM | > 400 µM | 73.2 ± 2.8 µM | –
CC(C)C[C@@H]1NC(=O)[C@H](CC(C)C)N(C)C(=O)[C@H](CC(C)C)NC(=O)[C@H](CC(C)C)N(C)C(=O)[C@H](CC(C)C)NC(=O)CN2C(=O)c3ccccc3[C@@]2(O)CN(Cc2ccccc2)C1=O [Compound 4, 3-Hydroxy-isoindolinone-cyclo-Gly-Leu-N-Me-Leu-Leu-N-Me-Leu-Leu] (cyclo([NMeL]L[NMeL]L[X1]L)) | – | 81 ± 4.29 µM | 310 ± 20.1 µM | 95.3 ± 8.6 µM | –
CC(C)C[C@@H]1C(=O)N[C@H](CC(C)C)C(=O)N[C@H](CC(C)C)C(=O)N[C@H](CC(C)C)C(=O)N(Cc2ccccc2)C[C@]2(O)c3ccccc3C(=O)N2CC(=O)N[C@H](CC(C)C)C(=O)N1C [Compound 5, 3-Hydroxy-isoindolinone-cyclo-Gly-Leu-Leu-Leu-N-Me-Leu-Leu] (cyclo([dL][dL][X1][dL][dNMeL][dL])) | – | 28.2 ± 6.2 µM | 153 ± 10.7 µM | 60.8 ± 8.2 µM | –
CC(C)C[C@@H]1C(=O)N[C@H](CC(C)C)C(=O)N[C@H](CC(C)C)C(=O)N[C@H](CC(C)C)C(=O)N(Cc2ccccc2)C[C@]2(O)c3ccccc3C(=O)N2CC(=O)N[C@H](CC(C)C)C(=O)N1C [Compound 6, 3-Hydroxy-isoindolinone-cyclo-Gly-Leu-N-Me-Leu-Leu-Leu-Leu] (cyclo([dL][dL][X1][dL][dNMeL][dL])) | – | 36.1 ± 2.2 µM | 120 ± 5.3 µM | 67.6 ± 2.3 µM | –
CC(C)C[C@@H]1NC(=O)[C@H](CC(C)C)NC(=O)[C@H](CC(C)C)N(C)C(=O)[C@H](CC(C)C)NC(=O)CN2C(=O)c3ccccc3[C@@]2(O)CN(Cc2ccccc2)C(=O)[C@H](CC(C)C)NC1=O [Compound 7, 3-Hydroxy-isoindolinone-cyclo-Gly-Leu-Leu-Leu-N-Me-Leu-Leu] (cyclo(LL[X1]L[NMeL]L)) | – | 30.4 ± 1.6 µM | > 400 µM | 112 ± 9 µM | –
CC(=O)O[C@H]1C(=O)[C@@]2(C)[C@H]([C@H](OC(=O)c3ccccc3)[C@]3(O)C[C@H](OC(=O)[C@H](O)[C@@H](NC(=O)c4ccccc4)c4ccccc4)C(C)=C1C3(C)C)[C@]1(OC(C)=O)CO[C@@H]1C[C@@H]2O [Taxol, paclitaxel, reference compound] | – | – | – | – | IC50 (HepG-2 cells; Homo sapiens, HepG2, 48 h, read-out: IC50 HepG-2): 40.9 ± 5.2 µM; IC50 (L929 cells; Mus musculus, L929, 48 h, read-out: IC50 L929): 141 ± 9.3 µM
cyclo-(L-Leu-L-N-Me-Leu-L-Leu-L-Leu-L-N-Me-Leu-L-Leu) [galaxamide] | – | – | – | – | in vitro antitumor activity [2]: strong; in vitro antitumor activity [3]: strong
